Among the data in EP3597653A1, “CYCLIC INHIBITORS OF HEPATITIS B VIRUS” (IRBM S.P.A., priority 2018, dated 2020) are EC50 and inhibition values, retold here.

Usually pEC50 stands for the EC50 on a negative log10 scale, so that one unit is a factor of ten.

pEC50: −log10 of the molar value.

One assay relates to HBV. The assay can be described thus: HBV inhibition assay in HepAD38 cells (extracellular HBV DNA by direct qPCR). In kind it is cell-based. As to conditions: Hepatitis B virus, 8-point dose-response curve, 96 hours, read-out: HBV inh EC50. An outline of the steps:
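HepAD38 cells (HepG2, tetracycline-off HBV) induced in tetracycline-free medium, treated 96 h at 37 °C with compound, 0.5% DMSO. Extracellular HBV DNA quantified by direct SYBR qPCR of lysed supernatant, as % of untreated; EC50 from 8-point 1:2 curves; cytotoxicity by CellTiter-Blue.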
As to `CC1Nc2ccc(C(=O)Nc3cc(F)c(F)c(F)c3)cc2S(=O)(=O)N1` (centres unmarked) [Example E21, 3-methyl-N-(3,4,5-trifluorophenyl)-3,4-dihydro-2H-benzo[e][1,2,4]thiadiazine-7-carboxamide 1,1-dioxide], the negative-log EC50 (pEC50) was > 6.00.
Consider `Cn1cncc1C1Nc2ccc(C(=O)Nc3cc(F)c(F)c(F)c3)cc2S(=O)(=O)N1` (centres unmarked) [Example E37, 3-(1-methyl-1H-imidazol-5-yl)-N-(3,4,5-trifluorophenyl)-3,4-dihydro-2H-benzo[e][1,2,4]thiadiazine-7-carboxamide 1,1-dioxide], for which the negative logarithm of the EC50 (pEC50) was > 6.00.

The assay is the same for the next values; noted with them: Hepatitis B virus, compound at 0.1 µM, 96 hours, relative to non-treated reference, read-out: Anti HBV Activity (conc µM).
Take `Cc1cc2c(cc1C(=O)Nc1cc(F)c(F)c(F)c1)S(=O)(=O)N([C@H]1CC[C@H](O)CC1)C(=O)N2` [Example E122, trans-2-(4-hydroxycyclohexyl)-6-methyl-3-oxo-N-(3,4,5-trifluorophenyl)-3,4-dihydro-2H-benzo[e][1,2,4]thiadiazine-7-carboxamide 1,1-dioxide]: the inhibition at 0.1 µM was > 50%.

Still in this assay, the particulars now being: Hepatitis B virus, compound at 0.5 µM, 96 hours, relative to non-treated reference, read-out: Anti HBV Activity (conc µM).
Regarding `C[C@H](N1C(=O)Nc2ccc(C(=O)Nc3cc(F)c(F)c(F)c3)cc2S1(=O)=O)C(F)(F)F` [Example E78, (S)-3-oxo-N-(3,4,5-trifluorophenyl)-2-(1,1,1-trifluoropropan-2-yl)-3,4-dihydro-2H-benzo[e][1,2,4]thiadiazine-7-carboxamide 1,1-dioxide], the inhibition at 0.5 µM was > 50%.
Regarding `Cc1cc2c(cc1C(=O)Nc1cc(F)c(F)c(F)c1)S(=O)(=O)NCN2` [Example E9, 6-methyl-N-(3,4,5-trifluorophenyl)-3,4-dihydro-2H-benzo[e][1,2,4]thiadiazine-7-carboxamide 1,1-dioxide], the inhibition at 0.5 µM was > 50%.
On the same count and under the same terms, for `O=C(Nc1cc(F)c(F)c(F)c1)c1cnc2c(c1)S(=O)(=O)NCN2` [Example E93, N-(3,4,5-trifluorophenyl)-3,4-dihydro-2H-pyrido[2,3-e][1,2,4]thiadiazine-7-carboxamide 1,1-dioxide] the value was < 50%; for `O=C(Nc1cc(F)c(F)c(F)c1)c1ccc2c(c1)S(=O)(=O)N([C@H]1C[C@H](O)C1)CN2` [Example E127, Trans-2-(3-hydroxycyclobutyl)-N-(3,4,5-trifluorophenyl)-3,4-dihydro-2H-benzo[e][1,2,4]thiadiazine-7-carboxamide 1,1-dioxide], < 50%.
The same measure, in the same setting: for `O=C(Nc1cc(F)c(F)c(F)c1)c1ccc2c(c1)S(=O)(=O)N(C1CC1)CN2` [Example E60, 2-cyclopropyl-N-(3,4,5-trifluorophenyl)-3,4-dihydro-2H-benzo[e][1,2,4]thiadiazine-7-carboxamide 1,1-dioxide] the value was < 50%; for `C[C@H](O)C1Nc2ccc(C(=O)Nc3cc(F)c(F)c(F)c3)cc2S(=O)(=O)N1` (stereo partly drawn) [Example E23, 3-((S)-1-hydroxyethyl)-N-(3,4,5-trifluorophenyl)-3,4-dihydro-2H-benzo[e][1,2,4]thiadiazine-7-carboxamide 1,1-dioxide], > 50%; for `O=C(Nc1cc(F)c(F)c(F)c1)c1ccc2c(c1)S(=O)(=O)NC(CO)N2` (centres unmarked) [Example E28, 3-(hydroxymethyl)-N-(3,4,5-trifluorophenyl)-3,4-dihydro-2H-benzo[e][1,2,4]thiadiazine-7-carboxamide 1,1-dioxide], > 50%.
Consider `CN1C(C2CCNCC2)Nc2ccc(C(=O)Nc3cc(F)c(F)c(F)c3)cc2S1(=O)=O` (centres unmarked) [Example E33, 2-methyl-3-(piperidin-4-yl)-N-(3,4,5-trifluorophenyl)-3,4-dihydro-2H-benzo[e][1,2,4]thiadiazine-7-carboxamide 1,1-dioxide], for which the inhibition at 0.5 µM was < 50%.

Still in this assay, the particulars now being: Hepatitis B virus, compound at 1 µM, 96 hours, relative to non-treated reference, read-out: Anti HBV Activity (conc µM).
On to `O=C(Nc1cc(F)c(F)c(F)c1)c1ccc2c(c1)S(=O)(=O)NC(c1cccnc1)N2` (centres unmarked) [Example E48, 3-(pyridin-3-yl)-N-(3,4,5-trifluorophenyl)-3,4-dihydro-2H-benzo[e][1,2,4]thiadiazine-7-carboxamide 1,1-dioxide], for which the inhibition at 1 µM was > 50%.
The same measure, in the same setting: for `O=C(Nc1cc(F)c(F)c(F)c1)c1ccc2c(c1)S(=O)(=O)N1CCC(C1)O2` (centres unmarked) [Example E118, N-(3,4,5-trifluorophenyl)-4,5-dihydro-3H-2,5-methanobenzo[b][1,4,5]oxathiazocine-9-carboxamide 1,1-dioxide] the value was < 50%; for `O=C(Nc1ccc(F)c(F)c1)c1ccc2c(c1)S(=O)(=O)NC1(COC1)N2` [Example E11, N-(3,4-difluorophenyl)-2H,4H-spiro[benzo[e][1,2,4]thiadiazine-3,3'-oxetane]-7-carboxamide 1,1-dioxide], < 50%; for `O=C(Nc1cc(F)c(F)c(F)c1)c1ccc2c(c1)S(=O)(=O)N1CCCC1CN2` (centres unmarked) [Example E106, N-(3,4,5-trifluorophenyl)-1,2,3,10,11,11a-hexahydrobenzo[f]pyrrolo[1,2-b][1,2,5]thiadiazepine-7-carboxamide 5,5-dioxide], < 50%.
Still for that read-out and setting: in the case of `O=C(Nc1ccc(F)c(F)c1)c1ccc2c(c1)S(=O)(=O)NC=N2` [Example E66, N-(3,4-difluorophenyl)-2H-benzo[e][1,2,4]thiadiazine-7-carboxamide 1,1-dioxide] it was < 50%; in that of `O=C(Nc1cc(F)c(F)c(F)c1)c1cc2c(cc1Cl)NC1(CCC1)NS2(=O)=O` [Example E34, 6-chloro-N-(3,4,5-trifluorophenyl)-2H,4H-spiro[benzo[e] [1,2,4]thiadiazine-3,1'-cyclobutane]-7-carboxamide 1,1-dioxide], < 50%.
Turning to `O=C(Nc1cc(F)c(F)c(F)c1)c1ccc2c(c1)S(=O)(=O)NCN2` [Example E1, N-(3,4,5-trifluorophenyl)-3,4-dihydro-2H-benzo[e][1,2,4]thiadiazine-7-carboxamide 1,1-dioxide], the inhibition at 1 µM is > 50%.
On to `CN1C(=O)Nc2ccc(C(=O)Nc3cc(F)c(F)c(F)c3)cc2S1(=O)=O` [Example E76, 2-methyl-3-oxo-N-(3,4,5-trifluorophenyl)-3,4-dihydro-2H-benzo[e][1,2,4]thiadiazine-7-carboxamide 1,1-dioxide], for which the inhibition at 1 µM was > 50%.
Same read-out and setting: in the case of `N#Cc1cc(NC(=O)c2ccc3c(c2)S(=O)(=O)NCN3)ccc1F` [Example E91, N-(3-cyano-4-fluorophenyl)-3,4-dihydro-2H-benzo[e][1,2,4]thiadiazine-7-carboxamide 1,1-dioxide] it was < 50%.
Same read-out and setting: in the case of `O=C(Nc1cc(F)c(F)c(F)c1)c1ccc2c(c1)S(=O)(=O)NC(c1cccs1)N2` (centres unmarked) [Example E43, 3-(thiophen-2-yl)-N-(3,4,5-trifluorophenyl)-3,4-dihydro-2H-benzo[e][1,2,4]thiadiazine-7-carboxamide 1,1-dioxide] it was > 50%.
The same measure, in the same setting: for `O=C1Nc2ccc(C(=O)Nc3ccc(F)c(F)c3)cc2S(=O)(=O)N1` [Example E74, N-(3,4-difluorophenyl)-3-oxo-3,4-dihydro-2H-benzo[e][1,2,4]thiadiazine-7-carboxamide 1,1-dioxide] the value was < 50%.
As for `O=C(Nc1cc(F)c(F)c(F)c1)c1ccc2c(c1)S(=O)(=O)N(C1CC1)C(=O)N2` [Example E79, 2-cyclopropyl-3-oxo-N-(3,4,5-trifluorophenyl)-3,4-dihydro-2H-benzo[e][1,2,4]thiadiazine-7-carboxamide 1,1-dioxide], the inhibition at 1 µM was < 50%.
